Results: the RepoRT retention time repository
Where a name gives a salt, the structure may show the parent alone.

assay: RP, Waters CORTECS UPLC C18, 100 × 2.1 mm, 1.6 µm, 40 °C, 0.4 mL/min, estimated dead time 0.55 min; A: water + 0.1% formic acid, pH 3; B: acetonitrile + 0.1% formic acid, pH 3; gradient (min/%B) 0/5 1.12/5 6.41/99.5 10.01/99.5; conditions: stereoisomer not certain

**Q.** With `O=c1[nH]c(=O)c2[nH]cnc2[nH]1` [XANTHINE] as the compound, how does the LC retention time read?
**A.** 0.727 min

**Q.** With `O=C(O)c1cccc(O)c1O` [2,3-DIHYDROXYBENZOATE] as the compound, how does the LC retention time read?
**A.** 1.66 min

**Q.** Which LC retention time does the source give for `CCCCCCCCCCCCCCCCCCCC[n+]1cccc(S(=O)(=O)[O-])c1` [C20-APS] here?
**A.** 7 min

**Q.** For `O=C(O)CNC(=O)c1ccccc1` [Hippuric acid], which LC retention time is on record?
**A.** 2.6 min

**Q.** For `CC1OC(n2cnc3c(N)ncnc32)C(O)C1O` (stereo unspecified) [5'-DEOXYADENOSINE], which LC retention time is on record?
**A.** 0.931 min

**Q.** For `CCC(C)C(=O)NCC(=O)O` (stereo unspecified) [N-(2-Methylbutyryl)glycine], which LC retention time is on record?
**A.** 2.27 min

**Q.** With `CC1=C(C(=O)Nc2ccccc2)CCCO1` [Pyracarbolid] as the compound, how does the LC retention time read?
**A.** 4.15 min

**Q.** With `CC(C)(C)N(NC(=O)c1ccc(Cl)cc1)C(=O)c1ccccc1` [Halofenozide] as the compound, how does the LC retention time read?
**A.** 4.84 min

**Q.** With `CC(COc1ccc(Oc2ccccc2)cc1)Oc1ccccn1` (stereo unspecified) [Pyripoxyfen] as the compound, how does the LC retention time read?
**A.** 6.07 min

**Q.** With `O=c1[nH]c(=O)c2ncn(C3OC(CO)C(O)C3O)c2[nH]1` (stereo unspecified) [XANTHOSINE] as the compound, how does the LC retention time read?
**A.** 0.752 min

**Q.** With `O=C(Nc1ccccc1)N(Cc1ccc(Cl)cc1)C1CCCC1` [Pencycuron] as the compound, how does the LC retention time read?
**A.** 5.69 min

**Q.** Which LC retention time does the source give for `CCCCCCCC[n+]1cccc(S(=O)(=O)[O-])c1` [C8-APS] here?
**A.** 3.67 min

**Q.** Which LC retention time does the source give for `CC(C)OC(=O)C(C(=O)OC(C)C)=C1SCCS1` [Isoprothiolane] here?
**A.** 5.21 min

**Q.** Which LC retention time does the source give for `c1coc(-c2nc3ccccc3[nH]2)c1` [Fuberidazole] here?
**A.** 2.63 min

**Q.** For `Cc1cc(C)nc(Nc2ccccc2)n1` [Pyrimethanil], which LC retention time is on record?
**A.** 4.13 min

**Q.** For `NC(=O)[C@@H](N)Cc1c[nH]c2ccccc12` [L-TRYPTOPHANAMIDE], which LC retention time is on record?
**A.** 1.79 min

**Q.** Which LC retention time does the source give for `CC(C1CC1)C(O)(Cn1cncn1)c1ccc(Cl)cc1` (stereo unspecified) [Cyproconazole] here?
**A.** 4.78 min

**Q.** With `O=C(O)CCCCC(=O)O` [ADIPATE] as the compound, how does the LC retention time read?
**A.** 2.47 min

**Q.** With `CCCCCCCCCCCCCC[n+]1cccc(S(=O)(=O)[O-])c1` [C14-APS] as the compound, how does the LC retention time read?
**A.** 5.49 min

**Q.** Which LC retention time does the source give for `CCC(C)(CC)c1cc(NC(=O)c2c(OC)cccc2OC)on1` [Isoxaben] here?
**A.** 5.08 min

**Q.** Which LC retention time does the source give for `CCCN(CCC)C(=O)SCc1ccccc1` [Prosulfocarb] here?
**A.** 5.95 min

**Q.** For `CC(C)(C)C(=O)C(Oc1ccc(Cl)cc1)n1cncn1` (stereo unspecified) [Triadimefon], which LC retention time is on record?
**A.** 4.95 min

**Q.** For `Nc1nc2nc[nH]c2c(=O)[nH]1` [GUANINE], which LC retention time is on record?
**A.** 0.76 min

**Q.** For `CC(C)=CCCC(C)C1CCC2C3CC=C4CC(O)CCC4(C)C3CCC12C` (stereo unspecified) [Desmosterol], which LC retention time is on record?
**A.** 6.81 min

**Q.** For `Fc1ccc(C2(Cn3cncn3)OC2c2ccccc2Cl)cc1` (stereo unspecified) [Epoxiconazol], which LC retention time is on record?
**A.** 4.94 min

**Q.** With `O=C(O)c1ccccn1` [PICOLINATE] as the compound, how does the LC retention time read?
**A.** 0.719 min

**Q.** Which LC retention time does the source give for `COC(=O)Nc1cccc(OC(=O)Nc2cccc(C)c2)c1` [Phenmediphan] here?
**A.** 4.71 min

**Q.** Which LC retention time does the source give for `COC(=O)C=C(C)OP(=O)(OC)OC` [Mevinphos] here?
**A.** 3.41 min

**Q.** For `CC(C)CCC[C@@H](C)[C@H]1CC[C@H]2[C@@H]3[C@H](O)CC4=CC(=O)CC[C@]4(C)[C@H]3CC[C@]12C` [7α-Hydroxy-4-cholesten-3-one], which LC retention time is on record?
**A.** 7.4 min

**Q.** For `CC(CCC(=O)NCCS(=O)(=O)O)C1CCC2C3C(O)CC4CC(O)CCC4(C)C3CC(O)C12C` (stereo unspecified) [Taurocholic acid sodium salt hydrate], which LC retention time is on record?
**A.** 3.74 min

**Q.** For `CC(C)(C)C(O)(CCc1ccc(Cl)cc1)Cn1cncn1` (stereo unspecified) [Tebuconazole], which LC retention time is on record?
**A.** 5.06 min

**Q.** For `CCS(=O)(=O)c1cccnc1S(=O)(=O)NC(=O)Nc1nc(OC)cc(OC)n1` [Rimsulfuron], which LC retention time is on record?
**A.** 4.11 min

**Q.** With `CC1(C)COC(=O)C1O` (stereo unspecified) [PANTOLACTONE] as the compound, how does the LC retention time read?
**A.** 3.31 min

**Q.** With `CCCC(Cn1cncn1)c1ccc(Cl)cc1Cl` (stereo unspecified) [Penconazole] as the compound, how does the LC retention time read?
**A.** 5.19 min

**Q.** With `Cc1ccc(C(C)NC(=O)C(NC(=O)OC(C)C)C(C)C)cc1` (stereo unspecified) [Iprovalicarb] as the compound, how does the LC retention time read?
**A.** 4.86 min

**Q.** Which LC retention time does the source give for `CC(=O)NCCCC(=O)O` [4-ACETAMIDOBUTANOATE] here?
**A.** 0.817 min

**Q.** For `CCC(C)C1OC2(C=CC1C)CC1CC(CC=C(C)C(OC3CC(OC)C(OC4CC(OC)C(O)C(C)O4)C(C)O3)C(C)C=CC=C3COC4C(O)C(C)=CC(C(=O)O1)C34O)O2` (stereo unspecified) [Mixture of Avermectin B1a and B1b], which LC retention time is on record?
**A.** 6.5 min

**Q.** With `CC(C)=CCCC(C)=CCCC(C)=CCCC=C(C)CCC=C(C)CCC=C(C)C` [SQUALENE] as the compound, how does the LC retention time read?
**A.** 6.18 min

**Q.** With `O=C/C=C/c1ccccc1` [TRANS-CINNAMALDEHYDE] as the compound, how does the LC retention time read?
**A.** 5 min

**Q.** For `CCCCCCCCC=CCCCCCCCC(=O)OC(CC(=O)[O-])C[N+](C)(C)C` [Oleoyl-L-carnitine], which LC retention time is on record?
**A.** 5.63 min

**Q.** With `N[C@@H](Cc1cc(I)c(O)c(I)c1)C(=O)O` [3,5-DIIODO-L-TYROSINE] as the compound, how does the LC retention time read?
**A.** 2.69 min

**Q.** Which LC retention time does the source give for `CON(C)C(=O)Nc1ccc(Cl)c(Cl)c1` [Linuron] here?
**A.** 4.8 min

**Q.** With `CSC1=NC(C)(c2ccccc2)C(=O)N1Nc1ccccc1` (stereo unspecified) [Fenamidone] as the compound, how does the LC retention time read?
**A.** 4.96 min

**Q.** With `Cc1c[nH]c(=O)[nH]c1=O` [THYMINE] as the compound, how does the LC retention time read?
**A.** 0.792 min

**Q.** With `CCCCCCCCCCC[n+]1cccc(S(=O)(=O)[O-])c1` [C11-APS] as the compound, how does the LC retention time read?
**A.** 4.59 min

**Q.** With `O=C(O)CCCCC1SCC2NC(=O)NC21` (stereo unspecified) [BIOTIN] as the compound, how does the LC retention time read?
**A.** 2.7 min

**Q.** Which LC retention time does the source give for `O=C1CC[C@@H](C(=O)O)N1` [L-Pyroglutamic acid] here?
**A.** 0.71 min

**Q.** Which LC retention time does the source give for `CCOP(=O)(NC(C)C)Oc1ccc(SC)c(C)c1` (stereo unspecified) [Fenamiphos] here?
**A.** 4.89 min

**Q.** For `Cn1c(=O)[nH]c2ncn(C)c2c1=O` [PARAXANTHINE], which LC retention time is on record?
**A.** 2.15 min

**Q.** With `CCOP(=S)(OCC)Oc1cc(C)nc(C(C)C)n1` [Diazinon] as the compound, how does the LC retention time read?
**A.** 5.73 min

**Q.** With `NC(Cc1ccccc1)C(=O)O` (stereo unspecified) [PHENYLALANINE] as the compound, how does the LC retention time read?
**A.** 1.25 min

**Q.** Which LC retention time does the source give for `C[N+](C)(C)CC(CC(=O)[O-])OC(=O)CCCCC(=O)[O-].[H+]` [Adipoyl-L-carnitine] here?
**A.** 1.3 min

**Q.** With `COC=C(C(=O)OC)c1ccccc1COc1cccc(C(F)(F)F)n1` [Picoxystrobin] as the compound, how does the LC retention time read?
**A.** 5.45 min

**Q.** With `CC(C)N(C(=O)COc1nnc(C(F)(F)F)s1)c1ccc(F)cc1` [Flufenacet] as the compound, how does the LC retention time read?
**A.** 5.22 min

**Q.** With `CCN(Cc1ccc(Cl)nc1)C(=C[N+](=O)[O-])NC` [Nitenpyram] as the compound, how does the LC retention time read?
**A.** 2.6 min

**Q.** With `CC(C)(C)C(O)C(Oc1ccc(-c2ccccc2)cc1)n1cncn1` (stereo unspecified) [Bitertanol] as the compound, how does the LC retention time read?
**A.** 5.14 min

**Q.** With `CC(C)=CC(=O)NCC(=O)O` [3-Methylcrotonyl Glycine] as the compound, how does the LC retention time read?
**A.** 2.29 min

**Q.** For `CCOP(=S)(OCC)SCn1c(=O)oc2cc(Cl)ccc21` [Phosalone], which LC retention time is on record?
**A.** 5.7 min

**Q.** Which LC retention time does the source give for `CN(C)C(=O)Nc1cccc(C(F)(F)F)c1` [Fluometuron] here?
**A.** 4.2 min

**Q.** With `Nc1cc(O)cc(C(=O)O)c1` [3-AMINO-5-HYDROXYBENZOATE] as the compound, how does the LC retention time read?
**A.** 0.722 min

**Q.** With `O=C(NC(=O)c1c(F)cccc1F)Nc1cc(Cl)c(OC(F)(F)C(F)F)c(Cl)c1` [Hexaflumuron] as the compound, how does the LC retention time read?
**A.** 5.61 min

**Q.** For `O=[N+]([O-])NC1=NCCN1Cc1ccc(Cl)nc1` [Imidacloprid], which LC retention time is on record?
**A.** 3.19 min

**Q.** Which LC retention time does the source give for `CCCCC(O)(Cn1cncn1)c1ccc(Cl)cc1Cl` (stereo unspecified) [Hexaconazole] here?
**A.** 5.17 min

**Q.** For `O=C(O)c1ccc2ccccc2n1` [2-QUINOLINECARBOXYLATE], which LC retention time is on record?
**A.** 2.4 min

**Q.** For `CCCCCCC=CC#CCCCCCCCC(=O)O` [Ximeninic Acid], which LC retention time is on record?
**A.** 6.4 min

**Q.** For `CCOP(=S)(OCC)Oc1ccc2c(C)c(Cl)c(=O)oc2c1` [Coumaphos], which LC retention time is on record?
**A.** 5.6 min
